Assay results: paper PMC11501026, “L-Arginine and asymmetric dimethylarginine (ADMA) transport across the mouse blood-brain and blood-CSF barriers: Evidence of saturable transport at both interfaces and CNS to blood efflux” (PLOS ONE, 2024)
Where “and” joins values, the source holds several entries; their conditions need not be identical. Identical values can stand only once. Counter-ions that a name gives are not always drawn. Like-named read-outs stand apart in the source and are kept apart here.

Key:
[1] = pH 7.4
Description: The lipophilicity of the radiolabelled test molecules was also measured by means of an octanol:saline partition coefficient. […] Centrifugation separated the hydrophobic (octanol) phase and hydrophilic (saline) phase and 100 μL samples in triplicate were taken for radioactive liquid scintillation counting on a Tricarb 2900TR liquid scintillation counter (Perkin-Elmer; Boston, MA, USA). The partition coefficient was calculated as the ratio of radioactivity in the octanol phase to the radioactivity in the aqueous phase.

[2] = tested on: [^3H]-arginine transport across the blood-brain and blood-CSF barriers; assay: cross-inhibition, in situ perfusion: [^3H]-arginine with 0.5–500 μM unlabelled ADMA; type: in vivo, mouse
Description: Self-inhibition experiments were also performed. […] Cross-competition experiments were also performed.
The percentage change in the RTissue uptake values achieved in the absence or presence of an unlabelled inhibitor can be calculated by means of Eq 4.
%change=RTissue−RInhibition/RTissue×100 Eq 4
We define RInhibition as the RTissue uptake in the presence of an inhibitor in the artificial plasma.
A decrease in the uptake of radiolabelled solute in the presence of unlabelled inhibitor is indicative of a saturable influx transport system. Conversely, an increase in the uptake of radiolabelled solute in the presence of unlabelled inhibitor is indicative of a saturable efflux transport system.
Concentrations of ADMA were specifically selected to mimic plasma concentrations under normal conditions (0.5 μM), pathophysiological conditions (3.0 μM), and then supraphysiological concentrations (10, 100 and 500 μM).

[3] = tested on: CAT1; conditions: HEK293 overexpressing CAT1; read-out: IC50, inhibition of CAT1-mediated transport of L-arginine; cited from earlier work
[4] = tested on: human dermal microvascular endothelial cells; conditions: cited from earlier work
[5] = in situ brain/choroid plexus perfusion: CNS uptake of [^3H]-arginine, [^3H]-ADMA and [^14C]-sucrose (multiple-time and single-time uptake analysis); conditions: 5ml/min; for [3H] ADMA and [14C] Sucrose uptake, frontal cortex: in mL/100 g; for Kp at […] / Kp at 20 min, 62.5 nM / Kp at 30 min, 62.5 nM / Kp at 10 min, 62.5 nM / Kp at […], 62.5 nM: male, BALB/c, mouse
[6] = 2.5 mins, Balb/c ♂, individual mouse
[7] = 30 mins, Balb/c ♂, individual mice
[8] = CONTROL, 10 mins, Balb/c ♂, mean
[9] = [3H] ADMA + [14C] Sucrose, 30 mins, Balb/c ♂, individual mice
[10] = [3H] ADMA + [14C] Sucrose, 30 mins, Balb/c ♂, mean

CN(C)C(N)=NCCC[C@H](N)C(=O)O [ADMA, N^G,N^G-dimethylarginine dihydrochloride]
octanol-saline partition coefficient [1]: 0.00226±0.00006 | effect on [^3H]-arginine distribution ([2]; 100 μM unlabelled ADMA, any of the samples analysed, 10 minutes): did not inhibit | inhibition of [^3H]-arginine distribution ([2]; 500 μM unlabelled ADMA, choroid plexus, 10 minutes): 72.6% | inhibition of [^3H]-arginine uptake ([2]; 500 μM unlabelled ADMA, each of the brain regions, 10 minutes): approximately 70% | inhibition of [^3H]-arginine distribution ([2]; 500 μM unlabelled ADMA, supernatant (brain parenchyma), 10 minutes): 72.0% | inhibition of [^3H]-arginine distribution ([2]; 500 μM unlabelled ADMA, whole brain homogenate, 10 minutes): 65.1% | effect on transport of [^3H]-arginine ([…]) across the blood-CNS barriers ([2]; 0.5–100 μM unlabelled ADMA): insensitive to inhibition | effect on [^3H]-arginine distribution ([2]; any concentration of unlabelled ADMA (0.5–500 μM), CSF, pineal gland and pituitary gland, 10 minutes): not affected | effect on [^3H]-arginine distribution ([2]; up to 500 μM unlabelled ADMA, cerebral capillary endothelial cells (pellet), 10 minutes): not affected | IC50 [3]: 758 µM | effect on [^3H]-arginine transport ([4]; 100 μM unlabelled ADMA): significant inhibitory effect | effect on [^3H]-arginine transport ([4]; 2.5–10 μM ADMA): did not affect | Difference (ADMA minus Sucrose), choroid plexus [5, 6]: 0.4619 (2×) and 1.038 and 0.6787 and 0.7164 | Difference (ADMA minus Sucrose), pineal gland [5, 6]: 0.0119 (2×) and 0.6055 and 0.1704 and 0.3775 | [3H] ADMA and [14C] Sucrose uptake, choroid plexus [5, 6]: 1.245 and 0.8202 and 0.645 and 0.9198 | [3H] ADMA and [14C] Sucrose uptake, frontal cortex [5, 6]: 0.1518 and 0.0919 | Difference (ADMA minus Sucrose), caudate nucleus [5, 7]: 0.07868 and 0.2155 and 0.07884 and 0.04051 and 0.09553 | Difference (ADMA minus Sucrose), choroid plexus [5, 7]: 0.4322 and 0.7701 and 0.2962 and 0.1895 and 0.3495 | Difference (ADMA minus Sucrose), frontal cortex [5, 7]: 0.08507 and 0.2094 and 0.08399 and 0.04504 and 0.09711 | Difference (ADMA minus Sucrose), occipital cortex [5, 7]: 0.09101 and 0.202 and 0.09058 and 0.04293 and 0.1128 | Difference (ADMA minus Sucrose), pineal gland [5, 7]: 0.4361 and 1.061 and 0.1804 and 0.1286 and 0.2721 | Difference (ADMA minus Sucrose), caudate nucleus ([5]; 30 mins, Balb/c ♂, mean): 0.1018 | Difference (ADMA minus Sucrose), choroid plexus ([5]; 30 mins, Balb/c ♂, mean): 0.4075 | Difference (ADMA minus Sucrose), frontal cortex ([5]; 30 mins, Balb/c ♂, mean): 0.1041 | Difference (ADMA minus Sucrose), caudate nucleus [5, 8]: 0.2407 | Difference (ADMA minus Sucrose), cerebellum [5, 8]: 0.1615 | Difference (ADMA minus Sucrose), choroid plexus [5, 8]: 2.6086 | Difference (ADMA minus Sucrose), frontal cortex [5, 8]: 0.2494 | Difference (ADMA minus Sucrose), hippocampus [5, 8]: 0.2174 | Difference (ADMA minus Sucrose), hypothalamus [5, 8]: 0.3042 | Difference (ADMA minus Sucrose), occipital cortex [5, 8]: 0.2252 | Difference (ADMA minus Sucrose), pituitary gland [5, 8]: 1.829 | Difference (ADMA minus Sucrose), pons [5, 8]: 0.2464 | Difference (ADMA minus Sucrose), thalamus [5, 8]: 0.21 | [3H] ADMA and [14C] Sucrose uptake, caudate nucleus [5, 8]: 0.2609 | [3H] ADMA and [14C] Sucrose uptake, cerebellum [5, 8]: 0.1856 | [3H] ADMA and [14C] Sucrose uptake, choroid plexus [5, 8]: 2.881 | [3H] ADMA and [14C] Sucrose uptake, hippocampus [5, 8]: 0.2336 | [3H] ADMA and [14C] Sucrose uptake, hypothalamus [5, 8]: 0.341 | [3H] ADMA and [14C] Sucrose uptake, occipital cortex [5, 8]: 0.2471 | [3H] ADMA and [14C] Sucrose uptake, pituitary gland [5, 8]: 1.982 | [3H] ADMA and [14C] Sucrose uptake, pons [5, 8]: 0.2825 | [3H] ADMA and [14C] Sucrose uptake, thalamus [5, 8]: 0.2291 | [3H] ADMA and [14C] Sucrose uptake, frontal cortex [5, 8]: 0.273 | uptake into caudate nucleus [5, 9]: 0.09268 and 0.2487 and 0.1281 and 0.07499 and 0.1274 | uptake into choroid plexus [5, 9]: 0.5413 and 0.9894 and 0.4672 and 0.3444 and 0.47 | uptake into frontal cortex [5, 9]: 0.1003 and 0.2556 and 0.1339 and 0.07655 and 0.1326 | uptake into occipital cortex [5, 9]: 0.1057 and 0.2389 and 0.1237 and 0.07486 and 0.1517 | uptake into caudate nucleus [5, 10]: 0.1344 | uptake into choroid plexus [5, 10]: 0.5624 | uptake into frontal cortex [5, 10]: 0.1398 | uptake into occipital cortex [5, 10]: 0.139 | Kp at […] ([5]; CSF, Difference (ADMA minus Sucrose), 2.5 mins, mean): 0.034 | Kp at 20 min, 62.5 nM ([5]; CSF, Difference (ADMA minus Sucrose), individual mouse): 0.197 | Kp at 20 min, 62.5 nM ([5]; CSF, Difference (ADMA minus Sucrose), mean): 0.225 | Kp at 30 min, 62.5 nM ([5]; CSF, Difference (ADMA minus Sucrose), 30 mins, mean): 0.349 | Kp at 10 min, 62.5 nM ([5]; CSF, Difference (ADMA minus Sucrose), CONTROL, 10 mins, mean): 0.267 | Kp at […] ([5]; CSF, [3H] ADMA and [14C] Sucrose uptake, 2.5 mins, mean): 0.122 | Kp at 20 min, 62.5 nM ([5]; CSF, [3H] ADMA and [14C] Sucrose uptake, mean): 0.433 | Kp at 10 min, 62.5 nM ([5]; CSF, [3H] ADMA and [14C] Sucrose uptake, CONTROL, 10 mins, mean): 0.273 | Kp at 30 min, 62.5 nM ([5]; CSF, uptake into CSF, [3H] ADMA + [14C] Sucrose, 30 mins, Balb/c ♂, mean): 0.721 | Kp at […], 62.5 nM ([5]; caudate nucleus, Difference (ADMA minus Sucrose), 2.5 mins, mean): 0.0936 | Kp at 20 min, 62.5 nM ([5]; caudate nucleus, Difference (ADMA minus Sucrose), mean): 0.256 | Kp at […], 62.5 nM ([5]; caudate nucleus, [3H] ADMA and [14C] Sucrose uptake, 2.5 mins, mean): 0.107 | Kp at 20 min, 62.5 nM ([5]; caudate nucleus, [3H] ADMA and [14C] Sucrose uptake, mean): 0.28 | Kp at […] ([5]; cerebellum, Difference (ADMA minus Sucrose), 2.5 mins, mean): 0.0947 | Kp at 20 min, 62.5 nM ([5]; cerebellum, Difference (ADMA minus Sucrose), mean): 0.273 | Kp at […] ([5]; cerebellum, [3H] ADMA and [14C] Sucrose uptake, 2.5 mins, mean): 0.112 | Kp at 20 min, 62.5 nM ([5]; cerebellum, [3H] ADMA and [14C] Sucrose uptake, mean): 0.3 | Kp at […], 62.5 nM ([5]; choroid plexus, Difference (ADMA minus Sucrose), 2.5 mins, mean): 0.671
